# Read-outs that look alike come from different tables or passages of the source.
# Assays:
# [1] = test system: human blood coagulation and fibrin formation; assay: Human blood coagulation and fibrin formation, thromboelastgram and scanning electron microscopy; assay type: biochemical
# Protocol: Effect of Yoshixol (4 μl) on human blood coagulation and fibrin formation (thrombin was added to fibrinogen) were investigated by thromboelastgram (Hellige GMBH, West Germany). Also, a magnitude of fibrin network which is formed at human blood coagulation was investigated by a scanning electron microscopy. Coagulation of human blood without treatment with Yoshixol was started within 1-2 min so that maximum level of coagulation occurred approximately within 15 min, followed by gradual decrease due to activation of fibrinolytic system. Immediately after thrombin is added on fibrinogen, viscosity of the sample started to increase, reached to a maximum level within 5-6 minutes. This maximum level was maintained for periods of 6 hours which was observed (referred FIG. 3a). However, when Yoshixol (4 μl) was added in 0.4 ml of whole blood or fibrinogen (160 mg/dl), onset time of blood coagulation and fibrin formation was delayed to 4-5 minutes and maximum aggregation time was occurred within 6-8 minutes. Maximum level of coagulation after the treatment was inhibited by 90% of control which level was maintained over 6 hours of investigation (referred FIG. 3b).
# trypsin = assay: Function and configuration of trypsin, electrophoresis; assay type: biochemical; conditions: after treatment with Yoshixol 4 μl
# Protocol: Each physiological effect of trypsin (Wakou Jyunyaku Ltd.) and thrombin (Behlinger Manheim-Yamanouchi Co.) was investigated by electrophoresis. When trypsin was added to bovine albumin (Sigma Co. Saint Louis, Mo., USA) or myoglobin (Sigma Co. Saint Louis, Mo., USA), each primary structure of proteins which consist of albumin was altered by proteolytic action of trypsin. In addition, when thrombin was added to human fibrinogen (Behlinger Manheim-Yamanouchi Co.), a primary structure of proteins which consists of fibrinogen was not found.
# vasopressin = target: T1, vasopressin (Homo sapiens, UniProt P01185); assay: Physiological function of vasopressin treated with Yoshixol, blood pressure; assay type: in vivo; conditions: rabbit, intravenous vasopressin 100 ng/Kg treated with Yoshixol 4 μl; untreated vasopressin 15-25 mmHg
# T1 construct: Effect on Physiological Function of Vasopressin and Insulin as Peptides; purchased Sigma Co. Saint Louis, Mo., USA
# Protocol: Each vasopressin and insulin has a physiological effect such as a rise of blood pressure and a fall of sugar level in blood respectively. An effect of Yoshixol on these physiological functions was investigated and compared by injection of each hormone without or with treatment with Yoshixol in rabbit in vivo. When vasopressin (100 ng/Kg, Sigma Co. Saint Louis, Mo., USA) without treatment with Yoshixol was injected intravenously, blood pressure increased by 15-25 mmHg so that this increased level was maintained for about 25 minutes. But, vasopressin (100 ng/Kg) treated with Yoshixol (4 μl) caused a increase in blood pressure of only about 5 mmHg (referred FIG. 6).
# [2] = test system: methitilin resistance staphylococcus aureus, MRSA (stock no. SCK18); assay type: cell-based; conditions: for colony formation unit (CFU): 24-hour incubation at 37° C., initial 10^8, control 10^10
# Candida albicans = assay: Antifungal effect; assay type: cell-based; conditions: for CFU: 2 μl per 1 ml of culture medium, 10^6 CFU/ml, Sabouraud broth
# [3] = test system: single strand DNA, double strand DNA and mRNA of E. coli bacteriophage; assay: Antiviral effect, E. coli bacteriophage structure and infection, electron microscopes; assay type: cell-based
# Protocol: (§1) In order to investigate the effect on virus, changes in structure of single strand DNA, double strand DNA and mRNA of E. coli bacteriophage (1 ml of 1 mol solution), which were prepared as non-treated sample and treated sample with 4 μl of Yoshixol, were observed by scanning and transmission electron microscopes. In addition, according a general bacteriological technique, changes in proliferation and in morphological aspect (by scanning and transmission electron microscopes) of E. Coli, which was infected by single strand DNA, double strand DNA or mRNA, were investigated before and after treatment of each phage with Yoshixol. As treated samples, 4 μl of Yoshixol was added in 1 ml of each phage solution which concentration was adjusted to 1 mol. […] In addition, an effect of Yoshixol on chicken myeloblastosis virus (AMV) reverse transcriptase (Gibco Co. Getesburg, Md., USA) was investigated by measuring amount of cDNA synthesis, which was amplified by PCR of RNA(5 μg) and AMV reverse transcriptase (25 units). As treated group, 0.01 μl of Yoshixol was added to 25 units sample of the AMV reverse transcriptase. Thus, the expected production of cDNA was obtained in the non-treated group, however, the amount of cDNA production decreased to 10% of the expected one when Yoshixol was treated (referred FIG. 15).
# [4] = test system: chicken myeloblastosis virus (AMV) reverse transcriptase; assay: AMV reverse transcriptase, amount of cDNA synthesis; assay type: biochemical; conditions: 0.01 μl of Yoshixol added to 25 units AMV reverse transcriptase, RNA 5 μg, PCR
# Protocol: as §1
# HeLa cells = assay: Anti-cancer effect, cultured HeLa cells; assay type: cell-based; conditions: compared with keratinocytes treated with Yoshixol
# thrombus = assay: Thrombolytic effect on thrombus, phase contrasted microscopy; assay type: cell-based, human or canine
# Protocol: In order to investigate a thrombolytic effect of Yoshixol on thrombus, 1 ml of human blood or canine blood were sampled by a syringe and transferred into the Petori-schale (grainer lab. GmHB) so that thrombus formation and rouleaux formation were observed under a phase contrasted microscopy (IMT-2, Olympus Co.). Then, 1 μl of Yoshixol was added in the blood sample when all visual fields could not be discriminated as an normal individual erythrocyte by thrombus formation. Then, a thrombolytic process of the thrombus was investigated and the process was recorded to a video tape via a collar video camera (CCD-IRIS, Sony Co.). The video pictures were analyzed as a liquid phenomena by an original software of dynamic state analysis. […] And, while original form of erythrocyte was recovered, each erythrocyte was marvelously dispersed from thrombus. […] And, Yoshixol has a potential to improve circulatory hindrance which is disturbed physiological role on original blood such as fluidability by being solidability. Yoshixol can apply as thrombolytic agents as well as inhibitory agents for thrombus formation.
# [5] = 50 μl in the whole space of the schale, indirect contact, 24 hours, 37° C.
# [6] = beagles, oral 10 μl per body weight
# [7] = beagles, oral 10 μl per body weight, 1 week
smiles,measurement,setting,value
"C=C1CC(C)(C)C=CC1=O [Yoshixol, 4,4-dimethyl-6-methylene-2-cyclohexen-1-one]",maximum aggregation time,[1]; Yoshixol 4 μl in 0.4 ml whole blood or fibrinogen (160 mg/dl),6 to 8 min
same,onset time of blood coagulation and fibrin formation,"[1]; Yoshixol 4 μl in 0.4 ml whole blood or fibrinogen (160 mg/dl), untreated blood 1-2 min",4 to 5 min
same,inhibition of maximum level of coagulation,"[1]; Yoshixol 4 μl in 0.4 ml, level maintained over 6 hours",90 % of control
same,rouleaux formation of erythrocyte and formation of fibrin net,"[1]; morphological investigation, scanning electron microscopy",did not occur
same,"physiological function of trypsin to bovine albumin, myoglobin",trypsin,did not occur
same,primary structure of trypsin (electrophoresis),trypsin,did not show any electrophoretic changes
same,increase in blood pressure,vasopressin,about 5 mmHg
same,colony formation unit (CFU),[2]; 0.25 μl per 1 ml of culture medium,10^4 CFU
same,colony formation unit (CFU),[2]; 2 μl per 1 ml of culture medium,10^2 CFU
same,colony formation unit (CFU),[2]; 10 μl per 1 ml of culture medium,zero
same,proliferation with evaporating component of Yoshixol,[2]; [5],did not occur
same,"histological aspect of cell death, scanning electron microscopy",[2]; after Yoshixol,separated to an individual bacterial cell
same,CFU,Candida albicans; after 1 hour,zero
same,CFU,Candida albicans; after 3 hours incubated,zero
same,proliferation with evaporating component of Yoshixol,Candida albicans; [5],did not occur
same,"helical and multi-dimensional structure of single strand DNA, double strand DNA and mRNA","[3]; 4 μl of Yoshixol in 1 ml phage solution (1 mol), electron microscopes",became a simple structure
same,adhesion of the phage on the bacterial surface and/or intrabacterial existence,[3]; E. coli infected with phage treated with Yoshixol,not in the treated group
same,"amount of cDNA production, of the expected one",[4],10%
same,structure between cells and cellular aspect,HeLa cells,observations similar to the above were found
same,hemolysis due to swelling and rupturing each erythrocyte,thrombus; 1 μl of Yoshixol in 1 ml blood sample,did not occur
same,thrombus after adding Yoshixol,thrombus; 1 μl of Yoshixol in 1 ml blood sample with thrombus,completely individualized to each erythrocyte
same,albumin/globulin ratio,[6],elevated 3 days after administration
same,creatinine phosphokinase,[6],fell
same,"enzymes such as γ-GPT, GOT, GPT",[6],also fell
same,albumin level,[7],did not change
same,"changes in concentration of total bilirubin, GOT, GPT, TTT, ZTT, cholinesterase, serum iron, potassium, sodium, chloride, inorganic phosphorus and calcium",[7],did not found
same,difference in concentration of total cholesterol and triglyceride between groups,[7],did not occur
same,level of uric acid,"beagles, oral 10 μl per body weight, during the administration",maintained at lower level
same,total proteins in blood serum,"beagles, oral 10 μl per body weight, recovery 1 week after stop",increased 3 days after administration
same,levels of nonproteins nitrogen and creatinine in the serum,"beagles, oral 10 μl per body weight, since 1 day after administration",70-80 % of the control
same,TTT and ZTT,"dog, in vivo, po",did not show abnormal values
same,"changes in numbers of red blood cells, white blood cells and platelets","dog, in vivo, po",did not found

# Source: patent US6710090B2, “Inhibitory or blocking agents of molecular generating and/or inducing functions” (priority 1994, dated 2004)
